According to ChEMBL document CHEMBL3425401, “Identification of 8-aminoadenosine derivatives as a new class of human concentrative nucleoside transporter 2 inhibitors” (ACS Med Chem Lett, 2015):

Assays:
[1] = biological target: T1, Sodium/nucleoside cotransporter 2 (Homo sapiens, UniProt O43868); test: Inhibition of human CNT2 expressed in COS7 cells assessed as reduction in sodium-dependent [14C]-inosine uptake in presence of Na+ by liquid scintillation counting method; format: cell-based, COS-7
T1 sequence (O43868 whole entry): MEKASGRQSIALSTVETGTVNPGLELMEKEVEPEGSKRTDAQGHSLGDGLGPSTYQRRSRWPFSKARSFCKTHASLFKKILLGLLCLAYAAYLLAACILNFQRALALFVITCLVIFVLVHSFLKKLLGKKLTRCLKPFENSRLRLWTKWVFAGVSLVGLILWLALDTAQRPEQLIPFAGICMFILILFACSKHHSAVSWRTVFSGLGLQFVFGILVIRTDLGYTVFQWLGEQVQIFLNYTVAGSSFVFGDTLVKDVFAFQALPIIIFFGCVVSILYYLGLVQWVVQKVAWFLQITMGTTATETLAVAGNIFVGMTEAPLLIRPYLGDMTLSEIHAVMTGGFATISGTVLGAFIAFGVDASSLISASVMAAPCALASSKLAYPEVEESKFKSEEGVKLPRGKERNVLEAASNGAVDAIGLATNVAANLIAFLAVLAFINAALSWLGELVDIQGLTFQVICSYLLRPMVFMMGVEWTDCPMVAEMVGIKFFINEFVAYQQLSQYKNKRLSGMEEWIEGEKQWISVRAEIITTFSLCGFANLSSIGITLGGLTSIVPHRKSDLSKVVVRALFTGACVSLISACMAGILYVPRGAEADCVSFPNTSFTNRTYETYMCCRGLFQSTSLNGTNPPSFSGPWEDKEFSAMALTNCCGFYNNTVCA

[2] = biological target: T2, Sodium/nucleoside cotransporter 2 (Homo sapiens) (UniProt O43868); test: Inhibition of human CNT2 expressed in COS7 cells assessed as reduction in sodium-dependent [14C]-inosine uptake at 100 uM in presence of Na+ by liquid scintillation counting method; format: cell-based; details: COS-7
T2 sequence (whole entry): T1 sequence (O43868 whole entry)

[3] = biological target: T2, Sodium/nucleoside cotransporter 2 (Homo sapiens); test: Potency index, ratio of IC50 for 7,8,3'-trihydroxyflavone to IC50 for test compound against human CNT2 expressed in COS7 cells by sodium-dependent [14C]-inosine uptake assay; format: cell-based; details: COS-7
[4] = biological target: T2, Sodium/nucleoside cotransporter 2 (Homo sapiens); test: Potency index, ratio of IC50 for 2'-deoxy-5-fluorouridine to IC50 for test compound against human CNT2 expressed in COS7 cells by sodium-dependent [14C]-inosine uptake assay; format: cell-based; details: COS-7
[5] = biological target: T2, Sodium/nucleoside cotransporter 2 (Homo sapiens); test: Potency index, ratio of IC50 for phlorizin to IC50 for test compound against human CNT2 expressed in COS7 cells by sodium-dependent [14C]-inosine uptake assay; format: cell-based; details: COS-7
[6] = biological target: T2, Sodium/nucleoside cotransporter 2 (Homo sapiens); test: Inhibition of human CNT2 expressed in COS7 cells assessed as reduction in sodium-dependent [14C]-inosine uptake at 1000 uM in presence of Na+ by liquid scintillation counting method; format: cell-based; details: COS-7

Row | SMILES | IC50 [1] [µM] | inhibition [2] [%] | other results
1 | Cc1cccc(CNc2nc3c(N)ncnc3n2[C@@H]2O[C@H](CO)[C@@H](O)[C@H]2O)c1 | 19 | – | –
2 | Cc1ccc(CNc2nc3c(N)ncnc3n2[C@@H]2O[C@H](CO)[C@@H](O)[C@H]2O)cc1 | 11 | – | –
3 | Nc1ncnc2c1nc(NCc1ccccc1Cl)n2[C@@H]1O[C@H](CO)[C@@H](O)[C@H]1O | 5.7 | – | –
4 | Nc1ncnc2c1nc(NCCCc1ccccc1)n2[C@@H]1O[C@H](CO)[C@@H](O)[C@H]1O | 536 | 26 | –
5 | Nc1ncnc2c1nc(NCc1ccc(-c3ccccc3)cc1)n2[C@@H]1O[C@H](CO)[C@@H](O)[C@H]1O | 0.64 | – | Ratio IC50 [3]: 1500; Ratio IC50 [4]: 1500; Ratio IC50 [5]: 1500
6 | O=c1cc(-c2cccc(O)c2)oc2c(O)c(O)ccc12 | > 1000 | < 5 | inhibition [6]: < 50%
7 | CC(=O)OC[C@H]1O[C@@H](n2cnc3c(N)ncnc32)[C@H](O)[C@@H]1O | > 100 | – | –
8 | Nc1ncnc2c1nc(NCc1ccccc1)n2[C@@H]1O[C@H](CO)[C@@H](O)[C@H]1O | 52 | 58 | –
9 | Nc1ncnc2c1nc(Nc1ccccc1)n2[C@@H]1O[C@H](CO)[C@@H](O)[C@H]1O | 289 | 36 | –
10 | Nc1ncnc2c1nc(NCc1cccc3ccccc13)n2[C@@H]1O[C@H](CO)[C@@H](O)[C@H]1O | 5.7 | – | –
11 | Nc1ncnc2c1ncn2[C@@H]1O[C@H](COC(=O)NCc2ccccc2)[C@@H](O)[C@H]1O | > 100 | – | –
12 | C[C@H](Nc1nc2c(N)ncnc2n1[C@@H]1O[C@H](CO)[C@@H](O)[C@H]1O)c1ccccc1 | – | < 5 | –
13 | CCCCCNC(=O)OC[C@H]1O[C@@H](n2cnc3c(N)ncnc32)[C@H](O)[C@@H]1O | > 100 | – | –
14 | CCC(=O)OC[C@H]1O[C@@H](n2cnc3c(N)ncnc32)[C@H](O)[C@@H]1O | > 100 | – | –
15 | COc1ccc(CNc2nc3c(N)ncnc3n2[C@@H]2O[C@H](CO)[C@@H](O)[C@H]2O)cc1 | 36 | – | –
16 | CCCCCOC(=O)OC[C@H]1O[C@@H](n2cnc3c(N)ncnc32)[C@H](O)[C@@H]1O | > 100 | – | –
17 | Nc1ncnc2c1nc(NCc1cccc(Cl)c1)n2[C@@H]1O[C@H](CO)[C@@H](O)[C@H]1O | 5.4 | – | –
18 | COc1cccc(CNc2nc3c(N)ncnc3n2[C@@H]2O[C@H](CO)[C@@H](O)[C@H]2O)c1 | 13 | – | –
19 | Nc1ncnc2c1ncn2[C@@H]1O[C@H](COC(=O)Cc2ccccc2)[C@@H](O)[C@H]1O | > 100 | – | –
20 | Nc1ncnc2c1ncn2[C@@H]1O[C@H](COC(=O)OCc2ccccc2)[C@@H](O)[C@H]1O | > 100 | – | –

Row | SMILES | IC50 [1] [µM] | inhibition [2] [%] | other results
21 | CCCCCC(=O)OC[C@H]1O[C@@H](n2cnc3c(N)ncnc32)[C@H](O)[C@@H]1O | > 100 | – | –
22 | O=c1[nH]c(=O)n([C@H]2C[C@H](O)[C@@H](CO)O2)cc1F [FLOXURIDINE] | > 1000 | 17 | inhibition [6]: < 50%
23 | CCOC(=O)OC[C@H]1O[C@@H](n2cnc3c(N)ncnc32)[C@H](O)[C@@H]1O | > 100 | – | –
24 | Nc1ncnc2c1nc(CCc1ccccc1)n2[C@@H]1O[C@H](CO)[C@@H](O)[C@H]1O | – | < 5 | –
25 | COC(=O)OC[C@H]1O[C@@H](n2cnc3c(N)ncnc32)[C@H](O)[C@@H]1O | > 100 | – | –
26 | Nc1ncnc2c1nc(OCc1ccccc1)n2[C@@H]1O[C@H](CO)[C@@H](O)[C@H]1O | – | < 5 | –
27 | Nc1ncnc2c1nc(NCc1ccc(Cl)cc1)n2[C@@H]1O[C@H](CO)[C@@H](O)[C@H]1O | 11 | – | –
28 | O=C(CCc1ccc(O)cc1)c1c(O)cc(O)cc1O[C@@H]1O[C@H](CO)[C@@H](O)[C@H](O)[C@H]1O [PHLORIZIN] | > 1000 | 14 | inhibition [6]: < 50%
29 | CNC(=O)OC[C@H]1O[C@@H](n2cnc3c(N)ncnc32)[C@H](O)[C@@H]1O | > 100 | – | –
30 | C[C@@H](Nc1nc2c(N)ncnc2n1[C@@H]1O[C@H](CO)[C@@H](O)[C@H]1O)c1ccccc1 | – | < 5 | –
31 | Nc1ncnc2c1nc(NCc1cccc(-c3ccccc3)c1)n2[C@@H]1O[C@H](CO)[C@@H](O)[C@H]1O | 21 | – | –
32 | CCNC(=O)OC[C@H]1O[C@@H](n2cnc3c(N)ncnc32)[C@H](O)[C@@H]1O | > 100 | – | –
33 | Cc1ccccc1CNc1nc2c(N)ncnc2n1[C@@H]1O[C@H](CO)[C@@H](O)[C@H]1O | 65 | – | –
34 | Nc1ncnc2c1nc(SCc1ccccc1)n2[C@@H]1O[C@H](CO)[C@@H](O)[C@H]1O | – | < 5 | –
35 | Nc1ncnc2c1nc(NCc1ccccc1-c1ccccc1)n2[C@@H]1O[C@H](CO)[C@@H](O)[C@H]1O | > 100 | – | –
36 | Nc1ncnc2c1nc(NCc1ccc3ccccc3c1)n2[C@@H]1O[C@H](CO)[C@@H](O)[C@H]1O | 5.3 | – | –
37 | Nc1ncnc2c1nc(NCCc1ccccc1)n2[C@@H]1O[C@H](CO)[C@@H](O)[C@H]1O | 233 | 39 | –
38 | CN(Cc1ccccc1)c1nc2c(N)ncnc2n1[C@@H]1O[C@H](CO)[C@@H](O)[C@H]1O | – | < 5 | –
39 | COc1ccccc1CNc1nc2c(N)ncnc2n1[C@@H]1O[C@H](CO)[C@@H](O)[C@H]1O | > 100 | – | –
